“Also recorded” adds a separate entry of the source. Positions of bridges follow the written chain, without caps; N, C: chain ends. Non-standard residues stand in square brackets, D forms with d. Residues, ends and D or L forms follow the SMILES beside them. *: point of attachment. FITC = O=C1OC2(c3ccc(O)cc3Oc3cc(O)ccc32)c2ccc(NC(=S)*)cc21; S5 = C=CCCC[C@](C)(N)C(=O)O; βAla = NCCC(=O)O
How the values were obtained:
[1] = system: SW480 cells; assay: Cell penetration assay monitoring fluorescence of FITC-labeled peptides; type: cell-based; conditions: 10 μM peptide in 10% serum, 24 h, confocal microscope
Description: Besides its affinity to β-catenin it is cell permeability that impacts the capability of a peptide to interfere with the intracellular target. Therefore, the ability to penetrate cells was tested by monitoring fluorescence of the fluorescein(FITC)-labeled peptides.

[2] = Circular dichroism spectra with calculated helicities; type: physicochemical
Excerpt: Based on the crystal structure of the Axin/β-catenin complex there are four residues (yellow, FIG. 5a) that are not involved in β-catenin binding[15] and should be suitable for modification without affecting binding. Taking into consideration that only i,i+4 (one helix turn) and i,i+7 5 (two helix turns) positioning of modified residues allows sufficient cross-linking[8] three hydrocarbon stapled sequences (STAX-1, 2 and 3, FIG. 5b) were designed. Circular dichroism spectra of the fluorescently labeled peptides were recorded allowing the calculation of helicities (FIG. 5c). […] Therefore, STAX-3 was chosen as starting point for further optimizations.

[3] = target: T1, N-terminally GST-tagged human β-catenin (Homo sapiens, UniProt P35222); assay: Fluorescence polarization assay with FITC-labeled peptides and GST-tagged β-catenin; type: binding; conditions: for increase in binding affinity to β-catenin compared to the wild type sequence (ax-WT): versus Axin wild type peptide
T1 sequence (P35222 1-781): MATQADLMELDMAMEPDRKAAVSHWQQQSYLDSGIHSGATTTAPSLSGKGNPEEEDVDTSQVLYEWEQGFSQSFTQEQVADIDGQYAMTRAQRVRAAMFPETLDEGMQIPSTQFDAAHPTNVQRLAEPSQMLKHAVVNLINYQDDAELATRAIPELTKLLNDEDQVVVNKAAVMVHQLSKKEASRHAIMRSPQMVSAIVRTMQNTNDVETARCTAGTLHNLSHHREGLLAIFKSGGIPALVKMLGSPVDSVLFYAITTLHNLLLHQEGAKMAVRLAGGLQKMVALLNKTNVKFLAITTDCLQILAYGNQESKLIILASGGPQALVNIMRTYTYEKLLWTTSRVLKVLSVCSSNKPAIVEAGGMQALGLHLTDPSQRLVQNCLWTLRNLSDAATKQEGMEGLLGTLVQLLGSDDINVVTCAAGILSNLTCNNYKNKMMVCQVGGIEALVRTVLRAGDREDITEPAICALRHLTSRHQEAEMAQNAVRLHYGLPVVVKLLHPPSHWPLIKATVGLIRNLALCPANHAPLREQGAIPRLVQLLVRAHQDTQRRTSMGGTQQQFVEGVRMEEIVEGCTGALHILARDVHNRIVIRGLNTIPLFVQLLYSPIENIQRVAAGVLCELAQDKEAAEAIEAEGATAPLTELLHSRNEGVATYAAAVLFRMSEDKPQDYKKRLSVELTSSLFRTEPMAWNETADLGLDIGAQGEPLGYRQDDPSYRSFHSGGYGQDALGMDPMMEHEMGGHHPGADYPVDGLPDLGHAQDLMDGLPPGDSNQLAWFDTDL
Excerpt: FIG. 4 depicts (a) superimposed crystal structures of TCF4 (PDB ID: 2GL7)[14] and Axin (PDB ID: 1QZ7)[15] bound to β-catenin; (b) sequences of modified peptides with NCBI accession and covered amino acids (* amino acids 29-37 were replaced by two βAla); (c) fluorescence polarization assays using FITC-labeled peptides and N-terminally GST-tagged human β-catenin (with corresponding Kds).
FIG. 7 depicts (a) fluorescently labeled peptide sequences resulting from phage display affinity optimization (entries 1, 4 and 17/18 in FIG. 6b); (b) fluorescence polarization assay with fluorescently labeled peptides and N-terminally GST-tagged human β-catenin (with corresponding Kds).
Peptide sequences derived from TCF4 and Axin were synthesized and fluorescently labeled (FIG. 4b) and the affinity of both binding domains to β-catenin was assessed. […] Therefore, the Axin derivative was considered to be the most promising candidate for the hydrocarbon stapling approach. It combines a relatively short and helical peptide sequence (15 amino acids) with moderate binding of β-catenin (Kd of ˜5 μM).

[4] = system: Wnt-dependent luciferase reporter; assay: Dual-luciferase Wnt-dependent reporter gene assay; type: cell-based; conditions: firefly signal normalized to Renilla luciferase control
Description: FIG. 10 depicts (a) stapled peptide sequences with corresponding Kd to β-catenin (blue boxes mark mutations meant to disrupt binding to (β-catenin, charges at pH 7.5 are calculated values); (b) inhibition of a Wnt-dependent luciferase reporter (dual-luciferase assay: signal was normalized to Renilla luciferase control); (c) dose-dependent effect of STAX-147 and STAX-160 in the dual-luciferase assay.
The cell penetrating stapled peptides were tested for their effects on transcriptional activity using an established reporter gene assay. In this dual-luciferase assay firefly luciferase is transcriptionally regulated by constitutively activated Wnt signaling. The firefly signal is normalized to the Renilla luciferase control.

Row | Compound | cell permeability [1] | helicity ([2]; calculated from circular dichroism spectra of the fluorescently labeled peptide) | change of helicity (in words) ([2]; compared to the wild type sequence (ax-WT)) | increase in helicity compared to the wild type sequence (ax-WT) ([2]; versus ax-WT) | change of affinity to β-catenin (in words) ([3]; compared to wild type or parent peptide) | increase in binding affinity to β-catenin compared to the wild type sequence (ax-WT) [3] | effect on Wnt-dependent luciferase reporter activity [4] | increase in binding affinity to β-catenin upon sequence modification ([3]; versus the preceding stapled peptide of the optimization series)
1 | CC[C@H](C)[C@@H]1NC(=O)[C@@](C)(NC(=O)[C@H](CCC(=O)O)NC(=O)[C@@H]2CCCN2C(=O)[C@H](CC(N)=O)NC(=O)[C@H](CCC(=O)O)NC(=O)CCNC(=S)Nc2ccc3c(c2)C(=O)OC32c3ccc(O)cc3Oc3cc(O)ccc32)CCCC=CCCC[C@@](C)(C(=O)N[C@@H](Cc2c[nH]cn2)C(=O)N[C@H](C(=O)N[C@@H](CCC(N)=O)C(=O)N[C@@H](CCCNC(=N)N)C(=O)N[C@H](C(=O)N[C@@H](CCSC)C(N)=O)C(C)C)C(C)C)NC(=O)[C@H](CC(=O)O)NC(=O)[C@H](CC(C)C)NC1=O [STAX-3] ({FITC-βAla}-ENPE[S5]ILD[S5]HVQRVM-NH2; staple 5-9) | non cell permeable | 51% | increased | 3.4 fold | increased | 80 fold | – | –
2 | CC[C@H](C)[C@@H]1NC(=O)[C@@](C)(NC(=O)[C@H](CCC(N)=O)NC(=O)[C@@H]2CCCN2C(=O)[C@H](Cc2c[nH]c3ccccc23)NC(=O)[C@H](CCCNC(=N)N)NC(=O)COCCOCCNC(=S)Nc2ccc3c(c2)C(=O)OC32c3ccc(O)cc3Oc3cc(O)ccc32)CCCC=CCCC[C@@](C)(C(=O)N[C@@H](Cc2c[nH]cn2)C(=O)N[C@H](C(=O)N[C@@H](CCCNC(=N)N)C(=O)N[C@@H](CCCNC(=N)N)C(=O)N[C@H](C(=O)N[C@@H](Cc2c[nH]c3ccccc23)C(=O)N[C@@H](CCCNC(=N)N)C(N)=O)C(C)C)C(C)C)NC(=O)[C@H](CC(=O)O)NC(=O)[C@H](CC(C)C)NC1=O [STAX-090] | increased further; also recorded: good permeability | – | – | – | – | more than 600 fold | repression of luciferase activity | two fold increase
3 | CC[C@H](C)[C@H](NC(=O)[C@H](CO)NC(=O)[C@H](CCC(=O)O)NC(=O)[C@@H]1CCCN1C(=O)[C@H](Cc1c[nH]c2ccccc12)NC(=O)[C@H](CCCNC(=N)N)NC(=O)CCNC(=S)Nc1ccc2c(c1)C(=O)OC21c2ccc(O)cc2Oc2cc(O)ccc21)C(=O)N[C@@H](CC(C)C)C(=O)N[C@@H](CC(=O)O)C(=O)N[C@@H](CCC(=O)O)C(=O)N[C@@H](Cc1c[nH]cn1)C(=O)N[C@@H](Cc1c[nH]c2ccccc12)C(=O)N[C@@H](CCC(=O)O)C(=O)N[C@@H](CCCNC(=N)N)C(=O)N[C@H](C(=O)N[C@@H](CCSC)C(=O)N[C@@H](CCCNC(=N)N)C(N)=O)C(C)C [phage-01] ({FITC-βAla}-RWPESILDEHWERVMR-NH2) | – | – | – | – | – | 39 fold | – | –
4 | CC[C@H](C)[C@H](NC(=O)[C@H](CO)NC(=O)[C@H](CCC(=O)O)NC(=O)[C@@H]1CCCN1C(=O)[C@H](CC(N)=O)NC(=O)[C@H](CCC(=O)O)NC(=O)CCNC(=S)Nc1ccc2c(c1)C(=O)OC21c2ccc(O)cc2Oc2cc(O)ccc21)C(=O)N[C@@H](CC(C)C)C(=O)N[C@@H](CC(=O)O)C(=O)N[C@@H](CCC(=O)O)C(=O)N[C@@H](Cc1c[nH]cn1)C(=O)N[C@H](C(=O)N[C@@H](CCC(N)=O)C(=O)N[C@@H](CCCNC(=N)N)C(=O)N[C@H](C(=O)N[C@@H](Cc1c[nH]c2ccccc12)C(=O)N[C@@H](CCCNC(=N)N)C(N)=O)C(C)C)C(C)C [phage-17/18] ({FITC-βAla}-ENPESILDEHVQRVWR-NH2) | – | – | – | – | – | 8 fold | – | –
